≈ marks a conversion by molar mass, not a printed value.
Key:
[1] = system: M. tuberculosis electron transport system; test: Oxygen consumption assay; format: cell-based; conditions: for electron transport system inhibition (conclusion): from oxygen consumption assay
[2] = system: M. bovis, M. intracellulare, and M. smegmatis; format: cell-based, Mycobacterium species
M. tuberculosis MenA = M. tuberculosis MenA (Mycobacterium tuberculosis, UniProt P9WIP3); test: MenA enzyme inhibitory assay; format: biochemical; conditions: for IC50: MenA Inhibition IC50, Mtb MenA, dose-response of DMMK formation
Chain of M. tuberculosis MenA (P9WIP3 whole entry): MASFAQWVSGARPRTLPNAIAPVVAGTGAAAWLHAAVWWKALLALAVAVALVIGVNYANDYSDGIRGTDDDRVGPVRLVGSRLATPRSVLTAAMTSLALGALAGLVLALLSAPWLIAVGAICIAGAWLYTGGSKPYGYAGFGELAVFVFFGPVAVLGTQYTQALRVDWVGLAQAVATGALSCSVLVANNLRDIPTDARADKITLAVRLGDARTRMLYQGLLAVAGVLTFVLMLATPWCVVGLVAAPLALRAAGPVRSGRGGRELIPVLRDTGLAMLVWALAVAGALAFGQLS

in vitro = conditions: monkey
M. bovis BCG = test: microbe, parasite or virus in culture; format: cell-based; conditions: Mycobacterium tuberculosis variant bovis BCG
[3] = system: M. intracellulare ATCC15984; test: MIC, Mycobacterium species panel; format: cell-based
M. tuberculosis H37Rv [4] = test: Microplate alamar blue assay; format: cell-based; conditions: Mycobacterium tuberculosis, read-out: MIC against Mtb (MABA)
M. tuberculosis H37Rv [5] = test: MIC, Mycobacterium species panel; format: cell-based

In the case of `CCCCCC[C@H](CN1CCC(COc2cccc(C(=O)c3ccc(Cl)cc3)c2)CC1)OC(N)=O` [(R)-12, (R)-1-(4-((3-(4-chlorobenzoyl)phenoxy)methyl)piperidin-1-yl)octan-2-yl carbamate], the “electron transport system inhibition (conclusion)” value [1] is reported as “very weak (or are not) electron transport system inhibitors”, the “killing concentration, other Mycobacterium species” value [2] is reported as 3.0~6.5 μg/mL and the “fold better MenA enzyme inhibitory activity compared to the alcohol (R)-11” value (M. tuberculosis MenA; Mtb MenA IC50 comparison) is reported as 6 fold.
With `CCCCCC[C@H](CN1CCC(COc2cccc(C(=NOC)c3ccc(Cl)cc3)c2)CC1)OC(N)=O` [(R)-13, (R)-1-(4-((3-((4-Chlorophenyl)(methoxyimino)methyl)phenoxy)methyl)piperidin-1-yl)octan-2-yl carbamate] the “killing concentration, other Mycobacterium species” value [2] was 3.0~6.5 μg/mL, the IC50 (M. tuberculosis MenA) was 1.2 µM and the selectivity ratio (in vitro) was > 10. It also gave an MIC (M. bovis BCG) of 2.95 µg/mL (≈ 5.56 µM), an MIC [3] of 6.5 µg/mL (≈ 12.3 µM) and an MIC (M. tuberculosis H37Rv [4]) of 2.31 µg/mL (≈ 4.36 µM).
Work on `CCCCCCC[C@@H](O)c1cccc(CN2CCC(COc3cccc(C(=NOC)c4ccc(Cl)cc4)c3)CC2)c1` [(R)-15, (R)-(4-chlorophenyl)(3-((1-(3-(1-hydroxyoctyl)benzyl)piperidin-4-yl)methoxy)phenyl)methanone O-methyl oxime] yielded an IC50 (M. tuberculosis MenA) of 15 µM.
For `CCCCCC[C@H](CN1CCC(COc2ccc(C(=O)c3ccc(Cl)cc3)c(Cl)c2)CC1)OC(N)=O` [(R)-17, (R)-1-(4-((3-chloro-4-(4-chlorobenzoyl)phenoxy)methyl)piperidin-1-yl)octan-2-yl carbamate], the “electron transport system inhibition (conclusion)” value [1] was “very weak (or are not) electron transport system inhibitors”.
Compound `CCCCCCC[C@@H](O)c1cccc(CN2CCC(COc3ccc(C(=NOC)c4ccc(Cl)cc4)c(Cl)c3)CC2)c1` [(R)-20, (R)-(2-Chloro-4-((1-(3-(1-hydroxyoctyl)benzyl)piperidin-4-yl)methoxy)phenyl)(4-chlorophenyl) methanone O-methyl oxime] has an IC50 (M. tuberculosis MenA) of 15 µM.
Work on `CCCCCCC[C@H](O)c1cccc(CN2CCC(COc3cccc(C(=O)c4ccc(Cl)cc4)c3)CC2)c1` [(S)-3, (S)-(4-chlorophenyl)(3-((1-(3-(1-hydroxyoctyl)benzyl)piperidin-4-yl)methoxy)phenyl) methanone] yielded an IC50 (M. tuberculosis MenA) of 20 µM.
In the case of `CCCCCC[C@@H](CN1CCC(COc2ccc(C(=O)c3ccc(Cl)cc3)c(Cl)c2)CC1)OC(N)=O` [(S)-17], the “concentration showing decolorization of methylene blue” value ([1]; Mtb, 37 °C, 22h, above the MIC) is reported as 12.5 µg/mL.
In the case of `CCCCCCC[C@H](O)c1cccc(CN2CCC(COc3ccc(C(=NOC)c4ccc(Cl)cc4)c(Cl)c3)CC2)c1` [(S)-20, (S)-(2-Chloro-4-((1-(3-(1-hydroxyoctyl)benzyl)piperidin-4-yl)methoxy)phenyl)(4-chlorophenyl) methanone O-methyl oxime], the IC50 (M. tuberculosis MenA) is reported as 20 µM.
Compound `NNC(=O)c1ccncc1` [INH, isoniazid] has an MIC (M. tuberculosis H37Rv [5]) of 0.24 µg/mL (≈ 1.75 µM).

Source: paper PMC3375340 (Journal of Medicinal Chemistry, 2012)
